# pIC50: −log10 of the molar value. Where two headings read alike, the source gives them in different places.
# What was measured:
# CDK9/CycT1 = biological target: T1, CDK9/CycT1 (Homo sapiens, UniProt P50750); experiment: CDK9/CycT1 kinase assay (Method 1a, TR-FRET); format: biochemical; settings: 10 μM ATP; for Selectivity CDK9 over CDK2: IC50 (CDK2)/IC50 (CDK9): Methods 1a. and 2a.
# T1 construct: Recombinant full-length His-tagged human CDK9 and CycT1; His; purchased Invitrogen PV4131; host or cells: insect cells
# From the text: 1a. CDK9/CycT1 Kinase Assay:
# CDK9/CycT1-Inhibitory Activity of Compounds of the Present Invention was Quantified Employing the CDK9/CycT1 TR-FRET Assay as Described in the Following Paragraphs:
# Recombinant full-length His-tagged human CDK9 and CycT1, expressed in insect cells and purified by Ni-NTA affinity chromatography, were purchased from Invitrogen (Cat. No PV4131). As substrate for the kinase reaction biotinylated peptide biotin-Ttds-YISPLKSPYKISEG (C-terminus in amid form) was used which can be purchased e.g. form the company JERINI Peptide Technologies (Berlin, Germany). For the assay 50 nl of a 100 fold concentrated solution of the test compound in DMSO was pipetted into a black low volume 384 well microtiter plate (Greiner Bio-One, Frickenhausen, Germany), 2 μl of a solution of CDK9/CycT1 in aqueous assay buffer [50 mM Tris/HCl pH 8.0, 10 mM MgCl2, 1.0 mM dithiothreitol, 0.1 mM sodium ortho-vanadate, 0.01% (v/v) Nonidet-P40 (Sigma)] were added and the mixture was incubated for 15 min at 22° C. to allow pre-binding of the test compounds to the enzyme before the start of the kinase reaction. Then the kinase reaction was started by the addition of 3 μl of a solution of adenosine-tri-phosphate (ATP, 16.7 μM=>final conc. in the 5 μl assay volume is 10 μM) and substrate (1.67 μM=>final conc. in the 5 μl assay volume is 1 μM) in assay buffer and the resulting mixture was incubated for a reaction time of 25 min at 22° C. The concentration of CDK9/CycT1 was adjusted depending of the activity of the enzyme lot and was chosen appropriate to have the assay in the linear range, typical concentrations were in the range of 1 μg/mL. The reaction was stopped by the addition of 5 μl of a solution of TR-FRET detection reagents (0.2 μM streptavidine-XL665 [Cisbio Bioassays, Codolet, France] and 1 nM anti-RB(pSer807/pSer811)-antibody from BD Pharmingen [#558389] and 1.2 nM LANCE EU-W1024 labeled anti-mouse IgG antibody [Perkin-Elmer, product no. AD0077]) in an aqueous EDTA-solution (100 mM EDTA, 0.2% (w/v) bovine serum albumin in 100 mM HEPES/NaOH pH 7.0).
# The resulting mixture was incubated 1 h at 22° C. to allow the formation of complex between the phosphorylated biotinylated peptide and the detection reagents. Subsequently the amount of phosphorylated substrate was evaluated by measurement of the resonance energy transfer from the Eu-chelate to the streptavidine-XL. Therefore, the fluorescence emissions at 620 nm and 665 nm after excitation at 350 nm was measured in a HTRF reader, e.g. a Rubystar (BMG Labtechnologies, Offenburg, Germany) or a Viewlux (Perkin-Elmer). The ratio of the emissions at 665 nm and at […] was taken as the measure for the amount of phosphorylated substrate. The data were normalised (enzyme reaction without inhibitor=0% inhibition, all other assay components but no enzyme=100% inhibition).
# HeLa cells = experiment: Proliferation assay HeLa (Method 3); format: cell-based, human; settings: 4 days, crystal violet, read-out: Inhibition of HeLa cell proliferation IC50
# Procedure: (§1) Cultivated tumour cells (HeLa, human cervical tumour cells, ATCC CCL-2; NCI-H460, human non-small cell lung carcinoma cells, ATCC HTB-177; A2780, human ovarian carcinoma cells, ECACC #93112519; DU 145, hormone-independent human prostate carcinoma cells, ATCC HTB-81; HeLa-MaTu-ADR, multidrug-resistant human cervical carcinoma cells, EPO-GmbH Berlin; Caco-2, human colorectal carcinoma cells, ATCC HTB-37; B16F10, mouse melanoma cells, ATCC CRL-6475) were plated at a density of 5,000 cells/well (DU145, HeLa-MaTu-ADR), 3,000 cells/well (NCI-H460, HeLa), 2,500 cells/well (A2780), 1,500 cells/well (Caco-2), or 1,000 cells/well (B16F10) in a 96-well multititer plate in 200 μL of their respective growth medium supplemented 10% fetal calf serum. After 24 hours, the cells of one plate (zero-point plate) were stained with crystal violet (see below), while the medium of the other plates was replaced by fresh culture medium (200 μl), to which the test substances were added in various concentrations (0 μM, as well as in the range of 0.001-10 μM; the final concentration of the solvent dimethyl sulfoxide was 0.5%). The cells were incubated for 4 days in the presence of test substances. Cell proliferation was determined by staining the cells with crystal violet: the cells were fixed by adding 20 μl/measuring point of an 11% glutaric aldehyde solution for 15 minutes at room temperature. After three washing cycles of the fixed cells with water, the plates were dried at room temperature. The cells were stained by adding 100 μl/measuring point of a 0.1% crystal violet solution (pH 3.0). After three washing cycles of the stained cells with water, the plates were dried at room temperature. The dye was dissolved by adding 100 μl/measuring point of a 10% acetic acid solution. The extinction was determined by photometry at a wavelength of 595 nm. The change of cell number, in percent, was calculated by normalization of the measured values to the extinction values of the zero-point plate (=0%) and the extinction of the untreated (0 μm) cells (=100%). The IC50 values (inhibitory concentration at 50% of maximal effect) were determined by means of a 4 parameter fit.
# DU145 cells = experiment: Proliferation assay DU145 (Method 3); format: cell-based, human; settings: DU145, 4 days, crystal violet, read-out: Inhibition of DU145 cell proliferation IC50
# Procedure: as §1
# T1 sequence (P50750 whole entry): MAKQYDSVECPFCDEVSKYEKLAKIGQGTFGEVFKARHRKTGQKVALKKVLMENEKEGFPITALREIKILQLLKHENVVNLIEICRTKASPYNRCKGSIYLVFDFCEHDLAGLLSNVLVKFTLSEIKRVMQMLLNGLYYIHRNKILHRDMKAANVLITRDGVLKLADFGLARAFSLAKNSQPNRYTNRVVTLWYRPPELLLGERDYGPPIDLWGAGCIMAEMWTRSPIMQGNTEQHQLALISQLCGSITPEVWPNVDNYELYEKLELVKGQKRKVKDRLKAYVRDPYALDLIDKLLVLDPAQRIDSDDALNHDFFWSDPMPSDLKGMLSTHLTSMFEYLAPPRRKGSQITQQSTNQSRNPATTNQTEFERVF
# T1 sequence (O60563 whole entry partner): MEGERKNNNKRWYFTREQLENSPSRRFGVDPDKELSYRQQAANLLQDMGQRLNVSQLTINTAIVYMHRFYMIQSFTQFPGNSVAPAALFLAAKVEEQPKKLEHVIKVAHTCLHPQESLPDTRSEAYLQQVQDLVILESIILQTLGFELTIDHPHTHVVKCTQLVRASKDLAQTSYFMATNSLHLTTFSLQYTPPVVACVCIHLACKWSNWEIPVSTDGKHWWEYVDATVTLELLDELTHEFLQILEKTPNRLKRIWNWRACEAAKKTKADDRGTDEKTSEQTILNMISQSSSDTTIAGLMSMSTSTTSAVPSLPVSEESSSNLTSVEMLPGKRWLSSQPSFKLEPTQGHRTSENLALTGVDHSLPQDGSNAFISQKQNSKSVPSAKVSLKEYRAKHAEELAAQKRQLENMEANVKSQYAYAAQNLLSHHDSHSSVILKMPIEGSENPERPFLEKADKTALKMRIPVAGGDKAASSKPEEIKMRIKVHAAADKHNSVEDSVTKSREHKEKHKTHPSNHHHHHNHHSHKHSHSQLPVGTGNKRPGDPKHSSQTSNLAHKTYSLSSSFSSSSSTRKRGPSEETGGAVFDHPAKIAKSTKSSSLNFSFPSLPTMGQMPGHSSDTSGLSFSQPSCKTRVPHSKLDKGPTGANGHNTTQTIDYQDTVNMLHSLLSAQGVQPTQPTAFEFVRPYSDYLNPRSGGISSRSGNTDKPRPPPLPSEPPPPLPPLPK
pIC50 (CDK9/CycT1),Selectivity CDK9 over CDK2: IC50 (CDK2)/IC50 (CDK9) (CDK9/CycT1),pIC50 (HeLa cells),pIC50 (DU145 cells),"pIC50 (HeLa cells; Homo sapiens, 96 h)","pIC50 (DU145 cells; Homo sapiens, DU-145, 96 h)",Structure (SMILES)
8.68,42,7.51,7.47,–,–,"CS(=O)(Cc1cc(F)cc(Nc2ncc(F)c(-c3ccc(F)c4ccoc34)n2)c1)=NC#N (single isomer, unassigned) [Example 9, [(3-Fluoro-5-{[5-fluoro-4-(4-fluoro-1-benzofuran-7-yl)pyrimidin-2-yl]amino}benzyl)(methyl)-oxido-λ^6-sulfanylidene]cyanamide]"
8.51,15,7.52,7.21,–,–,"CS(=N)(=O)Cc1cc(F)cc(Nc2ncc(F)c(-c3ccc(F)c4ccoc34)n2)c1 (single isomer, unassigned) [Example 12, 5-Fluoro-4-(4-fluoro-1-benzofuran-7-yl)-N-{3-fluoro-5-[(S-methylsulfonimidoyl)-methyl]-phenyl}-pyrimidin-2-amine]"
8.36,15,–,–,7.02,7.18,"Cc1cc(CS(C)(=O)=NC#N)cc(Nc2ncc(F)c(-c3ccc(F)c4ccoc34)n2)c1 (single isomer, unassigned) [Example 14, [(3-{[5-Fluoro-4-(4-fluoro-1-benzofuran-7-yl)pyrimidin-2-yl]amino}-5-methylbenzyl)-(methyl)oxido-λ^6-sulfanylidene]cyanamide]"
8.62,40,6.97,7.00,–,–,"Cc1cc(CS(C)(=O)=NC#N)cc(Nc2ncc(F)c(-c3ccc(F)c4ccoc34)n2)c1 (single isomer, unassigned) [Example 15, [(3-{[5-Fluoro-4-(4-fluoro-1-benzofuran-7-yl)pyrimidin-2-yl]amino}-5-methylbenzyl)-(methyl)oxido-λ^6-sulfanylidene]cyanamide]"

# Source: patent US9884849B2, “Fluorinated benzofuranyl-pyrimidine derivatives containing a sulfoximine group” (Bayer Pharma Aktiengesellschaft, priority 2014, dated 2018)
